The text below walks through data of patent US20210253635A1, “PEPTIDIC PROTEIN KINASE C INHIBITORS AND USES THEREOF” (UNIVERSITE DE GENEVE, priority 2018, published 2021).

Ends that are not written are not given here. * marks the point of attachment. Myristoyl = CCCCCCCCCCCCCC(=O)*

For test [1], the system named is nasal epithelial monolayers (Mucilair human primary nasal epithelial cells). As to the kind of experiment: FITC insulin permeabilization (apical to basolateral) across epithelial monolayer. Format: cell-based. Conditions: peptide 50 μM, apical side, compared to control (vehicle), FIG. 2. An excerpt: To assess the potential effects of peptides of the invention on the permeabilization of therapeutic molecules, FITC Insulin (Sigma-Aldrich, Buchs SG, Switzerland) is used as a model for assessing paracellular drug transport (apical to basolateral) across the epithelial monolayer.
Mucilair™ human primary nasal and bronchial epithelial cells (Epithelix sarl, Geneva, Switzerland) and Caco-2 human intestinal epithelial cells are used (Huang et. al., 2013, Toxicol. in Vitro 27: 1151-1156).
Before each experiment, the culture medium is removed from each compartment and the monolayer is washed once with 200 μl of saline (0.9%) and once with warm Hanks' Balanced Salt Solution (HBSS) (37° C.). In the basolateral compartment, 600 μL of pre-warmed HBSS is placed and the cells are returned to the incubator at 37° C. for 30 minutes to equilibrate. After equilibration, the peptides of the invention and the paracellular marker (FITC insulin) are applied to the apical side of an epithelial monolayer. Peptides P4 (SEQ ID NO: 2) and P3 (SEQ ID NO: 4) according to the invention are tested in comparison with a comparative peptide CP4 (SEQ ID NO: 3).
All peptides are used at a final concentration of 50 μM. The vehicle is used as a control (CTRL). The FD solution is added to the apical compartment to make a final volume of 200 μl. […] The fluorescence of FD is measured in black 96-well plates using a fluorescence plate reader (BioTek Synergy Mx plate reader, BioTek Instruments GmbH, Lucerne, Switzerland), using excitation and emission wavelengths of 485 and 520 nm, respectively. Cumulative release (ng) corresponds to the actual amount of drug released cumulatively and corresponds to the amount in the suspension medium at any time plus the amount of the drug lost during each sampling.

The subject of test [2] is Mucilair human primary nasal epithelial cells. The test can be described thus: Trans-epithelial electrical resistance (TEER), epithelial integrity. Format: cell-based. The conditions noted are these: peptide 100 μM, apical, FIG. 1. As for the experimental part: Trans-epithelial electrical resistance (TEER): After addition of 200 μl of culture medium to the apical compartment of the tissue cultures, resistance is measured across cultures with an EVOMX volt-ohm-meter (World Precision Instruments UK, Stevenage) in triplicate for each time point. The TEER values (Ω) is converted normalized by using the following formula: TEER (Ω cm^2)=(resistance value (Ω)−100 (Ω))×0.33 (cm^2), where 100Ω is the resistance of the membrane and 0.33 cm^2 is the total surface of the epithelium.
To assess the potential effects of peptides of the invention on the epithelial integrity, transepithelial electrical resistance in the presence of a peptide of the invention is measured. Trans-epithelial electrical resistance (TEER) was measured as in Example 2 except that volt-ohm-meter was equipped with STX-2 chopstick electrodes (WPI, Sarasota, Fla., USA). Mucilair™ human primary nasal epithelial cells were used as in Example 2 (from single donor; EP01-Batch number MD069201). The peptide P4 (SEQ ID NO: 2) and comparative peptide […] both at a concentration of 100 μM in Mucilair™ medium and control solution (i.e., 50 μl of saline+50 μl of Mucilair™ medium) were administered to the apical compartment of the tissue cultures at the begging of the experiment (t=0) and the measurements were made after 20, 40, 60 and 80 minutes (t=20 min, t=40 min, t=60 min and t=80 min) of the incubation. All TEER values are expressed as percentage relative to control (the baseline value was 242 Ω*cm^2). All the experiments were performed at least 2 times (test 1 and 2).

Test [3] relates to non-small cell lung cancer (NSCLC). Conditions: NSCLC patients, compared to chemotherapies, before resistance appears; cited from earlier work.

Take “Myr-AKRWR (Myristoyl-AKRWR) [CP4, comparative peptide, L-amino acid version of P4, reference compound]”: in test [1], the “permeabilization of FITC-conjugated insulin (cumulative release)” value (“permeabilization” below) was “slightly increased the permeabilization”.

In the case of “Myr-D-Ala D-Arg D-Arg D-Trp D-Arg [Peptide P3]”, the “permeabilization” value in test [1] is listed as “increased the permeabilization of insulin FITC to a much larger extend than the control peptide CP4”.

For “Myr-D-Ala D-Lys D-Arg D-Trp D-Arg [Peptide P4]”, in test [1], the “permeabilization” value is listed as “increased the permeabilization of insulin FITC to a much larger extend than the control peptide CP4”. Besides, the “TEER values (percentage relative to control)” value is “decreased TEER values as compared to control solution and comparative peptide P4 (CP4)” in test [2] (t=20 min); “this effect persisted” in test [2] (t=40 min and t=60 min); “TEER values increased as compared to values measured at previous time points” in test [2] (t=80 min).

Consider `COc1cc2ncnc(Nc3ccc(F)c(Cl)c3)c2cc1OCCCN1CCOCC1` [Gefitinib, N-(3-Chloro-4-fluorophenyl)-7-methoxy-6-(3-morpholinopropoxy) quinazolin-4-amine], for which, in test [3], the “progression free survival (PFS)” value was 7.7-12.9 months.
